Test results from patent publication US20090208448A1, “Inhibition of angiogenesis” (priority 2008, published 2009).
Entries after “also recorded” stand apart in the source; their conditions may differ.

Experiments:
serum cholesterol = experiment: Serum cholesterol levels in diet/ezetimibe SCID mouse cohorts (Infinity colorimetric assay); format: in vivo, SCID mice; settings: ezetimibe 30 mg/kg/d, 4 weeks, both LFNC and HFHC diet groups, drug F=23.48, p<0.001
Experimental: Mice and Tumor Xenografts. 5 week old SCID mice were obtained from the Massachusetts General Hospital and were fed a low fat/no cholesterol diet (LFNC) (Research Diets, New Brunswick, N.J. diet # D12102) for two weeks, blood was drawn from the saphenous tail vein and the serum cholesterol concentration was determined using the Infinity Cholesterol Liquid Stable Reagent (Thermo Electron Corp.). For intact (non-castrated) mice, the animals were divided into the high fat/high cholesterol diet (HFHC) (Research Diets, diet # D12108) and LFNC groups with and without ezetimibe (30 mg/kg/day; Schering-Plough, New Brunswick, N.J.) and the mice continued on these diets for four weeks. For castrated mice, the mice were divided into 4 groups, 2 groups were castrated, and 2 groups were left intact. […] Tumors were measured daily from the initiation of the first palpable tumors and the mice sacrificed prior to reaching the maximum tumor burden (13-23 days post implantation). Terminal bleeds were taken (Cardiac puncture) for serology (triglyceride, bilirubin and other liver function tests were performed in the Dept. of Laboratory Medicine, Children's Hospital Boston, androgen levels were determined by a testosterone EIA, Diagnostic Systems Laboratories, Webster, Tex.). Tumors were removed, measured, weighed and either placed in OCT solution (Tissue-Tek, Torrance, Calif.) or snap frozen. […]

[1] = tested on: LNCaP human prostate tumor xenografts; experiment: Growth of implanted LNCaP prostate tumor xenografts (volume, wet weight, take); format: in vivo, SCID mice
Experimental: (§1) Mice and Tumor Xenografts. 5 week old SCID mice were obtained from the Massachusetts General Hospital and were fed a low fat/no cholesterol diet (LFNC) (Research Diets, New Brunswick, N.J. diet # D12102) for two weeks, blood was drawn from the saphenous tail vein and the serum cholesterol concentration was determined using the Infinity Cholesterol Liquid Stable Reagent (Thermo Electron Corp.). For intact (non-castrated) mice, the animals were divided into the high fat/high cholesterol diet (HFHC) (Research Diets, diet # D12108) and LFNC groups with and without ezetimibe (30 mg/kg/day; Schering-Plough, New Brunswick, N.J.) and the mice continued on these diets for four weeks. For castrated mice, the mice were divided into 4 groups, 2 groups were castrated, and 2 groups were left intact. The mice were fed either the LFNC, or a low fat/high cholesterol diet (LFHC) (Research Diets, diet #D12104) for 80 days. Xenografts were initiated by injecting LNCaP (2×10^6 per site) with 1:1 volume of Matrigel (BD BioSciences, San Jose, Calif.) into the 4 dorsal quadrants of each mouse. In order to eliminate any injection bias, the mice were randomized prior to implantation and the implanter was blinded to which group each mouse was assigned. All animal procedures were done in compliance with Children's Hospital Boston's animal care and use policies. Tumors were measured daily from the initiation of the first palpable tumors and the mice sacrificed prior to reaching the maximum tumor burden (13-23 days post implantation). Terminal bleeds were taken (Cardiac puncture) for serology (triglyceride, bilirubin and other liver function tests were performed in the Dept. of Laboratory Medicine, Children's Hospital Boston, androgen levels were determined by a testosterone EIA, Diagnostic Systems Laboratories, Webster, Tex.). Tumors were removed, measured, weighed and either placed in OCT solution (Tissue-Tek, Torrance, Calif.) or snap frozen.
Following alteration of cholesterol levels, the mice from Example 3 were injected subcutaneously with 2×10^6 LNCaP cells in their flanks (4 tumors/mouse). Regimens were continued following implantation, and the experiment continued for 13 days following the initial appearance of tumors. Tumor volume was measured daily (FIG. 2B). […] The overall effect of diet and ezetimibe was independent and additive, not synergistic. […] Tumor take was >95% in all groups and no significant differences in tumor take were observed.

LNCaP xenograft tumors [2] = experiment: Tumor membrane cholesterol analysis; format: in vivo, SCID mice; settings: ezetimibe main effect p<0.0001, n=9/group
Experimental: Tumor cholesterol analysis. Tumors were finely minced in phosphate buffered saline (PBS) on ice and the level of cholesterol was determined as described previously (Boucher, K., Siegel, C. S., Sharma, P., Hauschka, P. V., and Solomon, K. R. 2006. HMG-CoA reductase inhibitors induce apoptosis in pericytes. Microvasc Res 71:91-102).

LNCaP xenograft tumors [3] = experiment: Tumor cell apoptosis (TUNEL staining); format: in vivo, SCID mice; settings: ezetimibe main effect p<0.0001, no synergy with diet (p=0.85)
Experimental: Apoptosis. Percentage of apoptotic cells in tumor sections was determined by TUNEL assay using the In Situ Cell Death Detection Kit (Roche Diagnostics Corp. Indianapolis, Ind.). Briefly, frozen tumor sections were fixed in 4% paraformaldehyde (PFA), permeabilized and the DNA stained with fluorescein following the manufacturer's instructions. Nuclei were counterstained with DAPI (Vector Labs, Burlingame, Calif.). Images were captured using a Zeiss microscope and the positive cells and nuclei were counted using Axiovision software 4.0.

LNCaP xenograft tumors [4] = experiment: Tumor cell proliferation (Ki67 staining); format: in vivo, SCID mice
Experimental: (§2) Immunofluorescence. Tumor samples frozen in OCT were sectioned (3-20 μm thick), mounted on Superfrost slides (ThermoFisher Scientific, Waltham, Mass.), and air-dried for 30 min. Sections were then fixed using cold acetone (5 min), followed by 1:1 acetone:chloroform (5 min), and then acetone (5 min) or by using 4% PFA at room temp (30 min) followed by 0.025% PBS/Triton X-100 (5 min) to permeabilize the cells. Sections were washed with cold PBS 3× for 5 min each and were incubated in a protein blocking solution of PBS/Tween (0.1%) with 5% bovine serum albumin (BSA; Sigma) at room temp (30 min) and were then washed in cold PBS 3× for 5 min each. The appropriate primary antibodies diluted 1:200-1:1000 in blocking solution were incubated with the sections overnight at 4° C. Sections were washed 3× for 5 min in cold PBS, and incubated in blocking solution (10 min). The sections were then incubated with the appropriate fluorescent secondary reporter antibodies diluted 1:500-1:5000 in blocking solution at room temp (30 min) followed by washing 3× in PBS. Nuclei were counter-stained with DAPI. Double staining of CD31 with TSP-1 and CD31 with SMA were performed sequentially as described above. Blood vessel analysis was done using IPLab software (BD Biosciences Bioimaging, Rockville, Md.) as previously described (Bielenberg, D. R., Hida, Y., Shimizu, A., Kaipainen, A., Kreuter, M., Kim, C. C., and Klagsbrun, M. 2004. Semaphorin 3F, a chemorepulsant for endothelial cells, induces a poorly vascularized, encapsulated, nonmetastatic tumor phenotype. J Clin Invest 114:1260-1271). Thombospndin-1 (TSP-1) analysis was done using the outline spline in AxioVision 4.0 software. Ki67 positive cells and nuclei were quantified using AxioVision 4.0 software.

LNCaP xenograft tumors [5] = experiment: Tumor hemoglobin quantification; format: in vivo, SCID mice; settings: n=20
Experimental: Hemoglobin Assay. Tumors were finely minced in 1 ml of fresh PBS on ice. The minced tissue suspensions were centrifuged at 10,000 g at 4° C. (2 min) and the supernatant was removed. The optical density (OD) of the clarified supernatants was read at 650 nm (background) and 530 nm (hemoglobin) using a spectrophotometer (Boyle, M. D., and Ohanian, S. H. 1980. Evidence for the influence of the initial complement components on the assembly and activity of the membrane attack complex. J Immunol 124:2824-2827; Gee, A. P., Boyle, M. D., and Borsos, T. 1980. Distinction between C8-mediated and C8/C9-mediated hemolysis on the basis of independent 86Rb and hemoglobin release. J Immunol 124:1905-1910).

LNCaP xenograft tumors [6] = experiment: Microvessel density (MVD), CD31 analysis; format: in vivo, SCID mice; settings: ezetimibe p=0.013, larger effects with HFHC (p=0.01)
Experimental: as §2, with “Blood vessel analysis was done using IPLab software (BD Biosciences Bioimaging, Rockville, Md.) as previously described (Bielenberg, D. R., Hida, Y., Shimizu, A., Kaipainen, A., Kreuter, M., Kim, C. C., and Klagsbrun, M. 2004. Semaphorin 3F, a chemorepulsant for endothelial cells, induces a poorly vascularized, encapsulated, nonmetastatic tumor phenotype. J Clin Invest 114:1260-1271). Thombospndin-1 (TSP-1) analysis was done using the outline spline in AxioVision 4.0 software.” left out

LNCaP xenograft tumors [7] = experiment: MVD, caveolin-1 analysis (immunoblotting and immunofluorescence); format: in vivo, SCID mice
Experimental: (§3) Immunofluorescence. Tumor samples frozen in OCT were sectioned (3-20 μm thick), mounted on Superfrost slides (ThermoFisher Scientific, Waltham, Mass.), and air-dried for 30 min. Sections were then fixed using cold acetone (5 min), followed by 1:1 acetone:chloroform (5 min), and then acetone (5 min) or by using 4% PFA at room temp (30 min) followed by 0.025% PBS/Triton X-100 (5 min) to permeabilize the cells. Sections were washed with cold PBS 3× for 5 min each and were incubated in a protein blocking solution of PBS/Tween (0.1%) with 5% bovine serum albumin (BSA; Sigma) at room temp (30 min) and were then washed in cold PBS 3× for 5 min each. The appropriate primary antibodies diluted 1:200-1:1000 in blocking solution were incubated with the sections overnight at 4° C. Sections were washed 3× for 5 min in cold PBS, and incubated in blocking solution (10 min). […] Ki67 positive cells and nuclei were quantified using AxioVision 4.0 software.
Lysates and Immunoblotting. […] Protein concentrations were determined by microBCA (Pierce/Thermo Scientific) and equal amounts of the lysates were subjected to SDS-PAGE and immunoblotting as described previously (Zhuang, L., Kim, J., Adam, R. M.-, Solomon, K. R., and Freeman, M. R. 2005. Cholesterol targeting alters lipid raft composition and cell survival in prostate cancer cells and xenografts. J Clin Invest 115:959-968).

LNCaP xenograft tumors [8] = experiment: Fibroblast staining of tumor sections; format: in vivo, SCID mice; settings: HFHC condition, p=0.03, n=55/group
Experimental: as §3, with “min). The sections were then incubated with the appropriate fluorescent secondary reporter antibodies diluted 1:500-1:5000 in blocking solution at room temp (30 min) followed by washing 3× in PBS. Nuclei were counter-stained with DAPI. Double staining of CD31 with TSP-1 and CD31 with SMA were performed sequentially as described above.” for “min).”

LNCaP xenograft tumors [9] = experiment: Pericyte coverage of microvessels (SMA staining); format: in vivo, SCID mice; settings: ezetimibe groups, p<0.0001
Experimental: as §3, with “min). The sections were then incubated with the appropriate fluorescent secondary reporter antibodies diluted 1:500-1:5000 in blocking solution at room temp (30 min) followed by washing 3× in PBS. Nuclei were counter-stained with DAPI. Double staining of CD31 with TSP-1 and CD31 with SMA were performed sequentially as described above.” for “min).”

thrombospondin-1 (TSP-1) = experiment: Thrombospondin-1 (TSP-1) levels in tumor sections; format: in vivo, SCID mice; settings: ezetimibe p<0.0001
Experimental: as §3, with “min). The sections were then incubated with the appropriate fluorescent secondary reporter antibodies diluted 1:500-1:5000 in blocking solution at room temp (30 min) followed by washing 3× in PBS. Nuclei were counter-stained with DAPI. Double staining of CD31 with TSP-1 and CD31 with SMA were performed sequentially as described above.” for “min).”

[10] = Serology (triglyceride, liver function tests) and feeding observation; format: in vivo, SCID mice
Experimental: as §1

VEGF or bFGF = VEGF or bFGF expression in the cohorts; format: in vivo, SCID mice; settings: between the diet/drug cohorts, data not shown
[11] = literature (Jurado 2004; Knopp 2003); cited from earlier work

O=C1[C@H](CC[C@H](O)c2ccc(F)cc2)[C@@H](c2ccc(O)cc2)N1c1ccc(F)cc1 [ezetimibe]
serum cholesterol (serum cholesterol): significant effects
serum cholesterol (serum cholesterol; listed as Ezetimibe): significant reductions
tumor wet weight at sacrifice ([1]; LFNC diet with drug, p=0.021 vs HFHC (0.88±0.71 g)): 0.63 ± 0.55 g
tumor wet weight at sacrifice ([1]; LFNC+Z group, p=0.021 vs HFHC (0.88±0.71)): 0.63±0.55 average grams/tumor site
tumor take ([1]; all diet/drug groups, no significant differences): > 95%
tumor growth rates (tumor volume) ([1]; ezetimibe 30 mg/kg/day added to diet, 13 days from first appearance of tumors, p=0.035): Significantly reduced
tumor cholesterol levels (membranes) (LNCaP xenograft tumors [2]): highly significant main effects; also recorded: independently affected
tumor cell apoptosis (relative level of TUNEL staining) (LNCaP xenograft tumors [3]): highly significant main effects; also recorded: significantly increased
relative level of Ki67 staining (LNCaP xenograft tumors [4]; HFHC diet w/ezetimibe (HFHC alone 41.16)): 30.32 (95% CI; 26.96-33.68)
relative level of Ki67 staining (LNCaP xenograft tumors [4]; LFNC diet w/ezetimibe (LFNC alone 28.78)): 25.57 (95% CI; 22.21-28.93)
tumor cell proliferation (Ki67), effect in words (LNCaP xenograft tumors [4]; ezetimibe by diet interaction p=0.027, magnitude depends on the diet): significant effect on lowering proliferation
relative hemoglobin/mg tumor tissue (LNCaP xenograft tumors [5]; HFHC+Z vs HFHC): statistical significance
relative hemoglobin/mg tumor tissue (LNCaP xenograft tumors [5]; LFNC vs LFNC+Z): not statistically different
microvessel density (relative level of CD31 staining) (LNCaP xenograft tumors [6]): highly significant main effect; also recorded: significantly suppressed
average caveolin-1 signal, immunoblotting (LNCaP xenograft tumors [7]; both diet conditions, p=0.027, n=6/group): significant drug effect in lowering caveolin
relative level of caveolin-1 staining, immunofluorescence (LNCaP xenograft tumors [7]; ezetimibe p<0.0001, n=43/group): highly significant main effects
relative level of fibroblast staining (LNCaP xenograft tumors [8]): statistically significant ezetimibe effect
pericyte coverage of vessels (relative level of SMA staining) (LNCaP xenograft tumors [9]): highly significant main effects; also recorded: dramatically increased
TSP-1 levels in tumors (relative level of TSP-1 staining) (thrombospondin-1 (TSP-1)): highly significant main effects; also recorded: enhanced
liver function (AST, ALP, bilirubin etc) ([10]; any mouse, all groups, data not shown): no liver dysfunction
serum triglyceride levels ([10]; ezetimibe cohorts, data not shown): no significant reduction; also recorded: nor were triglyceride levels significantly reduced
feeding behavior ([10]; observation, calorie intake 21.18 Kcal/d): did not alter feeding behavior
VEGF or bFGF expression (VEGF or bFGF): no differences
triglyceride levels in humans [11]: modest effect
